Measurements from PubChem BioAssay (NCI).
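Dose response: 5 concentrations. Exposure: 48 h. Format: 96-well plates. Endpoint: linear interpolation; highest concentration if not reached. GI50: concentration for 50% inhibition of growth. At the TGI there is no net growth.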

Tests used:
Experiment in all cases: inhibition of tumour cell growth, NCI panel, 48 h
[1] = tested on: 786-0 renal
[2] = tested on: A549 NSCLC
[3] = tested on: HCC-2998 colon
[4] = tested on: MCF7 breast
[5] = tested on: MDA-MB-435
[6] = tested on: MOLT-4 leukemia
[7] = tested on: NCI-H226 lung
[8] = tested on: NCI/ADR-RES ovarian
[9] = tested on: RPMI-8226 leukemia
[10] = tested on: SR leukemia

SMILES | TGI [1] | TGI [2] | TGI [3] | TGI [4] | TGI [5] | TGI [6] | TGI [7] | TGI [8] | TGI [9] | TGI [10] | GI50 [1] | GI50 [2] | GI50 [3] | GI50 [4] | GI50 [5] | GI50 [6] | GI50 [7] | GI50 [8] | GI50 [9] | GI50 [10]
COc1cc2[nH]c3c(c2cc1OC)CCN[C@@]31CC[C@@]2(CC3c4c(cc(OC)c(O)c42)CCN3C)C[C@@H]1OC (some centres not stated) | > 100 µM | > 100 µM | > 83.4 µM | > 100 µM | 41.4 µM | > 56.2 µM | > 100 µM | > 85.1 µM | > 56.2 µM | 36.6 µM |  |  |  |  |  |  |  |  |  | 
CC1=CC2(C)/C=C(C)/C=C\CC(O)/C=C3/C=CC(=C4C(=O)OC2(CC1C)C4=O)OC3 (configuration not stated) | 4.94 µM | 16.8 µM | 22.2 µM | 20.7 µM | 5.12 µM | > 20.4 µM | 47.9 µM | 12.2 µM |  | > 100 µM | 2.25 µM | 3.66 µM | 5.78 µM | 2.11 µM | 2 µM | 0.47 µM | 11.8 µM | 3.08 µM | 0.328 µM | 1.59 µM
CN(C(=O)C(C)(C)C)c1ccccc1I(=O)=O | > 100 µM | > 100 µM | > 100 µM | > 100 µM | > 100 µM | > 100 µM | > 100 µM | > 100 µM | 66 µM | 26.4 µM | > 100 µM | > 100 µM | > 100 µM | > 100 µM | > 100 µM | 3.45 µM | > 100 µM | > 100 µM | 18.8 µM | 3.15 µM
COc1cccc(N2CC(O)=C(c3nc4ccccc4s3)C2=N)c1 | 37.1 µM | > 56.6 µM | 3.57 µM | > 100 µM | 0.362 µM | > 100 µM | > 100 µM | > 23.2 µM | > 100 µM | > 100 µM | 0.363 µM | 0.656 µM | 0.23 µM | 0.289 µM | 0.0478 µM | 0.166 µM | 7.21 µM | 0.286 µM |  | 
Cc1cc(I)cc(CN(C)CCCN2CCC(C)CC2)c1O | 26.2 µM | 29.6 µM | 25.4 µM | 28.2 µM | 25 µM | 26.4 µM | 39.1 µM | 31 µM | 32 µM | 32.2 µM | 13.4 µM | 15.4 µM | 12.4 µM | 14.2 µM | 11.6 µM | 10 µM | 17.2 µM | 14.3 µM | 12.6 µM | 11.5 µM
Oc1c(C(c2ccc(F)cc2)N2CCCCC2)ccc2cncnc12 (configuration not stated) | > 100 µM | > 51.3 µM | > 100 µM | > 39.4 µM | > 100 µM | > 100 µM | 19.4 µM | > 100 µM | > 100 µM | > 100 µM | 1.69 µM | 0.377 µM | 2.09 µM | 0.344 µM | 0.412 µM | 1.38 µM | 1.19 µM | 2.58 µM | 0.555 µM | 0.675 µM
N#C/C(=C\c1ccc[nH]1)c1cc(-c2ccc(Cl)cc2)nn1-c1ccccc1 | 27.5 µM | > 64.7 µM | 12.4 µM | 19.7 µM | 13.2 µM | 8.23 µM | 37.2 µM | > 31.4 µM | 9.77 µM | 6.28 µM | 6.06 µM | 6.92 µM | 3.5 µM | 0.449 µM | 2.7 µM | 2.52 µM | 7.71 µM | 3.93 µM | 2.48 µM | 1.97 µM
COc1ccc(C(=O)/C=C/c2ccc(OCc3cccc(C(F)(F)F)c3)c(OC)c2)cc1OC | > 1000 µM | > 1000 µM | > 1000 µM | > 1000 µM | > 1000 µM | > 1000 µM | > 1000 µM | > 1000 µM | 94 µM | > 1000 µM | 67.3 µM | 67.7 µM | 131 µM | 27.4 µM | 45.8 µM | 27.7 µM | 83.1 µM | 42.1 µM | 25.3 µM | 33.8 µM
C=C1C(=O)O[C@@H]2/C=C(/C)[C@@H](OC(C)=O)C[C@@H](O)/C(C)=C\[C@@H](OC(=O)[C@]3(C)O[C@@H]3C)[C@@H]12 | 15.8 µM | > 100 µM | 34.5 µM | 18.1 µM | 28.8 µM | 20.7 µM | > 100 µM | > 100 µM | 26.3 µM | 21.5 µM |  |  |  |  |  |  |  |  |  | 
O=C(Nc1nc2c(C(F)(F)F)cccc2s1)c1cc(Cl)ccc1O | 12.2 µM | > 100 µM | 14.1 µM | 27.5 µM | > 100 µM | 1.21 µM | 1.31 µM | 21.6 µM | 0.52 µM | 3.28 µM | 0.337 µM | 0.316 µM | 0.451 µM | 0.302 µM | 0.323 µM | 0.318 µM | 0.269 µM | 0.311 µM | 0.203 µM | 0.353 µM
OC(c1cc(C(F)(F)F)nc2c(Cl)cc(Cl)cc12)C1CCCCN1 (configuration not stated) | > 38.1 µM | > 52.2 µM | > 100 µM | > 25.8 µM | 18.4 µM | 22.9 µM | 35.1 µM | 30.2 µM | 9.19 µM | 5.32 µM |  |  |  |  |  |  |  |  |  | 
CCCCCCCCN(CCCCCCCC)CC(O)c1cc(-c2ccccc2)nc2ccc(OC)cc12 (configuration not stated) | > 100 µM | > 100 µM | > 100 µM | > 100 µM | > 100 µM | > 100 µM | > 100 µM | > 100 µM | 44.3 µM | 97.3 µM | > 100 µM | > 100 µM | > 100 µM | 38.9 µM | 32.1 µM | 23.1 µM | > 100 µM | 16.3 µM | 10.3 µM | 10.1 µM
CC1(C)OCC2OC(n3cnc4c(N)nc(Cl)nc43)C(OS(C)(=O)=O)C2O1 (configuration not stated) | > 100 µM | > 100 µM | > 100 µM | > 100 µM | > 100 µM | > 100 µM | > 100 µM | > 100 µM | > 100 µM | > 100 µM |  |  |  |  |  |  |  |  |  | 
Clc1cnc(Nc2ccc(OCCN3CCCC3)cc2)nc1NCc1ccco1 | 13.3 µM | 16.3 µM | 9.59 µM | 10.2 µM | 11.5 µM | 8.4 µM | 11.3 µM | 9.53 µM | 5.49 µM | 6.61 µM | 3.15 µM | 2.56 µM | 2.92 µM | 1.51 µM | 2.73 µM | 1.86 µM | 0.671 µM | 3.15 µM | 2.25 µM | 1.4 µM
Cn1nc(C(F)(F)F)cc1-c1cc(Cl)c(OCc2ccc(Cl)cc2)c(-c2ccc(Cl)c(C(F)(F)F)c2)c1O | 2.63 µM | 5.6 µM | 5.45 µM | 5.33 µM | 4.18 µM | 2.39 µM | 4.3 µM | 5.33 µM | 2.55 µM | 2.11 µM | 1.07 µM | 1.41 µM | 1.4 µM | 1.01 µM | 1.42 µM | 1.01 µM | 1.36 µM | 1.35 µM | 0.712 µM | 0.651 µM
